Among the data in ChEMBL document CHEMBL2007661, “Compounds: GSK PKIS; Assays: UNC Frye lab” (2012) are inhibition values, retold here.

The target of assay [1] is T1, Inhibitor of nuclear factor kappa-B kinase subunit beta (Homo sapiens) (UniProt O14920).
T1 sequence (whole entry): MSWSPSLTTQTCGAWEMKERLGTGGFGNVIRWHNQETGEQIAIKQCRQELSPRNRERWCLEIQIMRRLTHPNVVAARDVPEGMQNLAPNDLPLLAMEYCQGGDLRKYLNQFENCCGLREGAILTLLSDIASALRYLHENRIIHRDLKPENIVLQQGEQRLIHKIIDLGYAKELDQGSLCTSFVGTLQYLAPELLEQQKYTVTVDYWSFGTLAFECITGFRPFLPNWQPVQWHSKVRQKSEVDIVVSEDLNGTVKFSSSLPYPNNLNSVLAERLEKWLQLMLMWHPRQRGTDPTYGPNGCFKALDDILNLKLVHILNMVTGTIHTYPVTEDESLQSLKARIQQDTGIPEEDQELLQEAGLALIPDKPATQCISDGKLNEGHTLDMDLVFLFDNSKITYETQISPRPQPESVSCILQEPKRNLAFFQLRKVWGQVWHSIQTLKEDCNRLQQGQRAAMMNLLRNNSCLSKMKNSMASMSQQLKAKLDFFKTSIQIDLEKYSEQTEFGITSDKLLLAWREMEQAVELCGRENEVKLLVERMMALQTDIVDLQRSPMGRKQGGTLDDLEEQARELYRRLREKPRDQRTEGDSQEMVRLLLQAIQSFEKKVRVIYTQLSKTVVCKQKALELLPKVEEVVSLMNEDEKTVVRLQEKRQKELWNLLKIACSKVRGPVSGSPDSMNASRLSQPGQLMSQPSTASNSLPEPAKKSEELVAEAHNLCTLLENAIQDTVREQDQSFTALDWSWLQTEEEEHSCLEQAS
The settings on record: at 1 µM.

Assay [2] has as its target T2, Tyrosine-protein kinase Mer (Homo sapiens) (UniProt Q12866).
T2 sequence (whole entry): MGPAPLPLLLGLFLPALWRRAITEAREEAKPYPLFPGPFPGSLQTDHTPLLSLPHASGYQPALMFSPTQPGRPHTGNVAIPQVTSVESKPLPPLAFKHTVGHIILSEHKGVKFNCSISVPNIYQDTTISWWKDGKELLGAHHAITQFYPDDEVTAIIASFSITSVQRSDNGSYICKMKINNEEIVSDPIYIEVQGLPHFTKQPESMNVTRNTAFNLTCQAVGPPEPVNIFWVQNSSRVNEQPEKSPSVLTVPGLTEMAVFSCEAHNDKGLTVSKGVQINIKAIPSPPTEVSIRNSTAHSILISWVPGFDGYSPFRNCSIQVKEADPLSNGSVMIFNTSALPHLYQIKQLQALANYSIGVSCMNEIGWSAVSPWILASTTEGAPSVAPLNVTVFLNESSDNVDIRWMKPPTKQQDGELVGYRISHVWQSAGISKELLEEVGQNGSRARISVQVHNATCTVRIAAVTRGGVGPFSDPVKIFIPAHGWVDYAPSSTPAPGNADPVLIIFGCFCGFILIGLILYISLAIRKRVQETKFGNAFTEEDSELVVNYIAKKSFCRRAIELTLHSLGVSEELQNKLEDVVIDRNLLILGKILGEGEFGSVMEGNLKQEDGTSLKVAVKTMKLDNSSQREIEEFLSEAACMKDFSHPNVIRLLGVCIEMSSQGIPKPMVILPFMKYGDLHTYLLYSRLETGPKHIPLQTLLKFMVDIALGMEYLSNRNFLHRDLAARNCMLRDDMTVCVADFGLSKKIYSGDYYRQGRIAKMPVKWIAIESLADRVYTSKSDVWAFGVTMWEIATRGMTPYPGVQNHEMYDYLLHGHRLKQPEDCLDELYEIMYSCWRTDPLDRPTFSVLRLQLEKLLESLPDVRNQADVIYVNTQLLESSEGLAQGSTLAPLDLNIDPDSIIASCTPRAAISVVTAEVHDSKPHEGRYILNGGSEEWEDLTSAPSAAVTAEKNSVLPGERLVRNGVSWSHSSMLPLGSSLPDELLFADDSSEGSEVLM
The settings on record: at 10 µM.

The target of assay [3] is T3, Serine/threonine-protein kinase TBK1 (Homo sapiens) (UniProt Q9UHD2).
T3 sequence (whole entry): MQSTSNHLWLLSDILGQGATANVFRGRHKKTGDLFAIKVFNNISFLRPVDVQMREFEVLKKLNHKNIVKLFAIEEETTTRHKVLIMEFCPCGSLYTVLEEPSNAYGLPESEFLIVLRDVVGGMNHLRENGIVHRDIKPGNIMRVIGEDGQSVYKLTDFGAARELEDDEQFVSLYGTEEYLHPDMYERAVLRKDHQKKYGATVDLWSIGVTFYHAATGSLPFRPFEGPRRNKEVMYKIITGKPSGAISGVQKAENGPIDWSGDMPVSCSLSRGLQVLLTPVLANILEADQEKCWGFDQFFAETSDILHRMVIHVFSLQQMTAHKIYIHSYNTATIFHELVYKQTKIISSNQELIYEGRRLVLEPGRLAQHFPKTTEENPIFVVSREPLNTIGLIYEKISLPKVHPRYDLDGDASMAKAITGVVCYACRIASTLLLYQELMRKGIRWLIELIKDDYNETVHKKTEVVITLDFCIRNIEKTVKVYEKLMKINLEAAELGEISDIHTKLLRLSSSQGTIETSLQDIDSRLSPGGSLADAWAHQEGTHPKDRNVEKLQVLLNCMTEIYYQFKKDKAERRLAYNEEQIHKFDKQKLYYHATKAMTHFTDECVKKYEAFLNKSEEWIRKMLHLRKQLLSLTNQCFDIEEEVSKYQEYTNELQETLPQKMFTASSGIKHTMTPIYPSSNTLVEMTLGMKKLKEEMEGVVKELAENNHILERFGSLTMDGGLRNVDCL
The settings on record: at 1 µM.

Values joined by “and” are separate entries in the source; they are usually repeats but may differ in a detail not shown here. Equal values may be shown once.

Broadly, the inhibition is the relative decrease from the control value, in per cent. In the case of `Nc1ncnc2occ(-c3ccc(NC(=O)Nc4cccc(C(F)(F)F)c4)cc3)c12`, the inhibition is -7% and -9% in assay [1]; 43% in assay [2]; 0% and -1% in assay [3].

Regarding `COC(=O)c1ccc2c(c1)C(=Cc1cc(Br)c(O)c(Br)c1)C(=O)N2`, the inhibition in assay [1] was 0% and -2%; in assay [2], 5%; in assay [3], 36%.

With `CC1=C(C(=O)Nc2ccc3[nH]ncc3c2)C(c2ccc(Cl)c(Cl)c2)CC(=O)N1` (stereo unspecified), the inhibition in assay [1] was 2%; in assay [2], 3%; in assay [3] it was 3% and 2%.

On to `CCc1ccc(Oc2nccc(-c3c(-c4ccc(F)cc4)ncn3C3CCNCC3)n2)cc1`, for which the inhibition was -7% and -6% in assay [1]; -6% in assay [2]; -6% and -3% in assay [3].

As for `CS(=O)(=O)CCNCc1ccc(-c2ccc3ncnc(Nc4ccc(OCc5ccccc5)c(Cl)c4)c3c2)o1`, the inhibition was 1% in assay [1]; 89% in assay [2]; -2% and 0% in assay [3].

`COc1cc(C)c(NC(=O)CN(C)C)cc1Nc1nc(Nc2cccc(F)c2C(N)=O)c2cc[nH]c2n1`: the inhibition in assay [1] was -1% and 18%; in assay [2] it was 52%; in assay [3] it was 30% and 32%.

For the compound `COc1cc(C)c(N(C)C(=O)CN(C)C)cc1Nc1nc(Nc2cccc(F)c2C(N)=O)c2cc[nH]c2n1`, the inhibition in assay [1] is -3% and -6%; in assay [2] it was 50%; in assay [3], -4% and -3%.

Turning to `Cc1nnc(-c2ccc(C)c(-c3ccc(C(=O)Nc4cccc(C#N)c4)cc3)c2)o1`, the inhibition in assay [1] is 0% and -2%; in assay [2], 7%; in assay [3], -2%.

Take `COC(=O)Nc1nc2cc(Oc3ccc(NC(=O)Nc4cccc(C(=O)O)c4)cc3)ccc2[nH]1`: the inhibition in assay [1] is -3% and 3%; in assay [2], 94%; in assay [3], -5% and -2%.

For `COc1ccc(C2=C(N3CCc4ccccc43)C(=O)NC2=O)cc1`, the inhibition was -2% and -6% in assay [1]; 3% in assay [2]; 0% and 3% in assay [3].

With `CC(C)(CO)CNC(=O)c1ccc2c(c1)/C(=N/Nc1ccc(S(N)(=O)=O)cc1)C(=O)N2`, the inhibition in assay [1] is -2%; in assay [2], 9%; in assay [3], 87% and 88%.

As to `NCc1ccc(-n2c(-c3nonc3N)nc3cnccc32)cc1`, the inhibition in assay [1] is -6% and -2%; in assay [2] it was -3%; in assay [3], 6% and 5%.

With `CCn1c(-c2nonc2N)nc2c(C#CC(C)(C)O)nc(OCCNC)cc21`, the inhibition in assay [1] was -2%; in assay [2] it was -6%; in assay [3] it was 23% and 19%.

For `Cc1ccc2c(-c3ccnc(Nc4ccccc4)n3)c(-c3ccc(F)cc3)nn2n1`, the inhibition in assay [1] was -1% and -4%; in assay [2], 5%; in assay [3], -1% and -3%.

On to `CS(=O)(=O)CCNCc1ccc(-c2ccc3ncnc(Nc4ccc(OCc5ccccc5)cc4)c3c2)o1`, for which the inhibition in assay [1] is -2% and -3%; in assay [2], -3%; in assay [3], -1% and -2%.

With `NC(=O)c1sc(-n2cnc3ccc(C(F)(F)F)cc32)cc1OCc1ccccc1Br`, the inhibition in assay [1] was -1% and -4%; in assay [2] it was 101%; in assay [3], 21% and 4%.

In the case of `CS(=O)(=O)Nc1cccc(-c2ccc3c(NC(=O)C4CC4)n[nH]c3c2)c1`, the inhibition in assay [1] was -6%; in assay [2], 47%; in assay [3] it was 3% and 5%.
